From paper PMC8725909, “1,3,4-Oxadiazole-naphthalene hybrids as potential VEGFR-2 inhibitors: design, synthesis, antiproliferative activity, apoptotic effect, and in silico studies” (Journal of Enzyme Inhibition and Medicinal Chemistry, 2021)
Several values for one entry are separate records, joined by “and”; a condition that tells them apart may be missing. Identical values can stand only once. Like-named read-outs stand apart in the source and are kept apart here.

Assays:
[1] = system: MCF-7 (human breast cancer cell line); assay: MTT cytotoxicity assay, MCF-7; type: cell-based
Method: (§1) MTT assay was used to assess the cytotoxic activities of the synthesised compounds against MCF-7 (human breast cancer cell line) and HepG2 (human hepatocellular carcinoma cell line).
(§2) The MCF-7, HepG2, and THLE-2 cell lines were purchased from the American Type Culture Collection (ATCC, Rockville, MD, USA). MCF-7 and HepG2 cells were grown in a medium that contains Roswell Park Memorial Institute (RPMI) 1640 with L-glutamine, 10% foetal bovine serum (FBS), streptomycin (100 μg/ml) and penicillin (100 U/ml). While THLE-2 cells were cultivated in Bronchial Epithelial Growth Media (BEGM) with 10% FBS, 5 ng/ml EGF, and 70 ng/ml phosphoethanolamine. All cells were maintained in a humidified incubator and 5% (v/v) CO2 atmosphere at 37 °C[60].
(§3) The MCF-7, HepG2, and THLE-2 cells were tested for cytotoxicity using the 3–(4, 5-dimethylthiazol-2-yl)-2,5-diphenyltetrazolium bromide (MTT) assay. The ability of living cells to reduce the yellow product MTT to a blue product, formazan, via a reduction reaction that occurs in the mitochondria is used to assess cell population growth. In this assay, 5000 cells/well were plated in a 96-well plate and allowed to grow for 24 h before being treated with over-mentioned suitable media containing increased concentrations of tested compounds (0, 0.1, 1, 10, 100, and 1000 µM). Each experiment was conducted in triplicate. After removing the media, 100 µL of MTT was added to each well and incubated for 4 h. Following that, 100 µL of dimethyl sulfoxide (DMSO) solution was added to solubilise the resulting formazan product, and absorbance at 570 nm was measured using an ELISA microplate reader (Epoc-2 C micro-plate reader, Bio Tek, VT, USA). The IC50 values [the concentration required to inhibit cell viability by 50%] were calculated.

[2] = system: HepG2 (human hepatocellular carcinoma cell line); assay: MTT cytotoxicity assay, HepG2; type: cell-based
Method: as §1, §2, §3

[3] = set-up: method as in PMID 33707933; conditions: 200 mg once daily, patients with advanced solid tumours; cited from earlier work
VEGFR-2 = VEGFR-2 level in HepG2 cells by ELISA; type: cell-based, human; conditions: VEGFR-2 concentration in HepG2 cells after treatment; control 1773 ± 15.01; mean ± SEM of three experiments
Method: In vitro VEGFR-2 concentration was evaluated using Enzyme-Linked Immunosorbent Assay (ELISA) kit (Cat. NO. EK0544) (AVIVA System Biology, USA) according to manufacturer instructions.

[4] = system: normal adult liver epithelial cells (THLE-2 cells); assay: MTT cytotoxicity against normal cells; type: cell-based; conditions: Homo sapiens
Method: as §2, §3

[5] = set-up: method as in PMID 25895472; conditions: cited from earlier work
caspase-3 = assay: Caspase-3 determination by ELISA; type: cell-based, human; conditions: HepG2, 8.8 µM, 24 h
Method: To test the effect of the synthesised compounds on caspase-3 levels, the most promising member 5, at a concentration of 8.8 µM, was applied to the most sensitive cells (HepG2) for 24 h.
The effect of compound 5 on the Caspase-3 level was assessed using an ELISA kit (Catalog # KHO1091) according to manufacturer instructions.

HepG2 cells [6] = assay: Cell cycle analysis by flow cytometry (propidium iodide); type: cell-based, human; conditions: HepG2, 8.8 µM, 48 h
Method: As a control, HepG2 cells were not treated with compound 5.
The effect of compound 5 on the cell cycle phases was investigated using propidium iodide staining and flow cytometric analysis according to the cell cycle kit (PN C03551). Briefly, HepG2 cells were allowed to grow in […], then treated with compound 5 for 48 h. After that, the cells were harvested and cell fixation was performed, cells were centrifuged at 2000 rpm for 5 min then, the supernatant was aspirated. The pellet of fixed cells was resuspended in a 0.5 ml cell cycle kit, vortexed, and incubated at 25 °C for 15 min. Finally, DNA was stained with 50 µg/ml propidium iodide for 30 min. Flow cytometric analysis of cell cycle performed on a COULTER® EPICS® XL™ Flow Cytometer (USA)[67–70].

HepG2 cells [7] = assay: Annexin-V/propidium iodide apoptosis assay; type: cell-based, human; conditions: HepG2, 8.8 µM, 48 h, mean ± SEM of three experiments
Method: The apoptosis induced by compound 5 was quantified using an Annexin-V/propidium iodide (PI) staining assay. Compound 5 was applied to HepG2 cells at a concentration of 8.8 µM.
To assess the effect of compound 5 on cell apoptosis, Annexin V–FITC Kit was used according to the kit protocol (PN IM3546), followed by flow cytometric analysis. In brief, HepG2 cells were allowed to grow in […], after that treated for 48 h. then, washed in phosphate-buffered saline and suspended to 5 × 10^5–5 × 10^6 cells/mL in 1X binding buffer. Then we added to 100 µL of the cell suspensions, 5 µL of dissolved PI, and 1 µL of annexin VFITC solution and incubated in the dark for 15 min. Next to that, we added 400 µL of ice-cold 1X binding buffer and mixed gently. Apoptotic cells were determined by flow cytometric analysis on a COULTER® EPICS® XL™ Flow Cytometer (USA)[67]^,[71]^,[72].

[8] = MCF7, MTT assay, mean ± SEM of at least three experiments, read-out: IC50 MCF-7
[9] = HepG2, MTT assay, mean ± SEM of at least three experiments, read-out: IC50 HepG2
[10] = THLE-2, normal liver epithelial cells, MTT, mean ± SEM of at least three experiments, read-out: THLE-2 IC50

Structure (SMILES) | IC50 ([1]; MCF7, read-out: IC50 MCF-7) | IC50 ([2]; HepG2, read-out: IC50 HepG2) | IC50 [1, 8] | IC50 [2, 9] | VEGFR-2 (pg/ml) HepG2 (VEGFR-2) | further results
COc1ccc2cc(C(C)c3nnc(SCC(=O)Nc4ccc(Cl)cc4)o3)ccc2c1 (stereo not drawn) [Compound 13, N-(4-Chlorophenyl)-2-{[5-(1-(6-methoxynaphthalen-2-yl)ethyl)-1,3,4-oxadiazol-2-yl]thio}acetamide] | 11.4 ± 0.99 µM | 10.5 ± 0.93 µM |  |  |  | 
COc1ccc2cc(C(C)c3nnc(SCC(=O)Nc4ccccc4)o3)ccc2c1 (stereo not drawn) [Compound 6, 2-{[5-(1-(6-Methoxynaphthalen-2-yl)ethyl)-1,3,4-oxadiazol-2-yl]thio}-N-phenylacetamide] |  |  | 13.2 ± 1.12 µM | 12.3 ± 0.87 µM |  | 
Cc1[nH]c(/C=C2\C(=O)Nc3ccc(F)cc32)c(C)c1C(=O)N[C@H]1CCN(C(=O)N(C)C)C1 [Vorolanib] |  |  |  |  |  | safety profile [3]: acceptable safety profile
COc1ccc2cc([C@H](C)c3nnc(SCC(=O)Nc4cccc(C)c4)o3)ccc2c1 [Compound 8, 2-{[5-(1-(6-Methoxynaphthalen-2-yl)ethyl)-1,3,4-oxadiazol-2-yl]thio}-N-(m-tolyl) acetamide] |  |  | 10.4 ± 0.92 µM | 9.5 ± 0.87 µM | 583.7 pg/mL and 583.7 ± 1.93 pg/mL | IC50 [4, 10]: 16.7 ± 0.73 µM
COc1cccc(NC(=O)CSc2nnc(C(C)c3ccc4cc(OC)ccc4c3)o2)c1 (stereo not drawn) [Compound 11, 2-{[5-(1-(6-Methoxynaphthalen-2-yl)ethyl)-1,3,4-oxadiazol-2-yl]thio}-N-(3-methoxyphenyl)acetamide] |  |  | 11.4 ± 0.81 µM | 10.7 ± 0.58 µM |  | 
COc1ccc2cc([C@H](C)c3nnc(SCC(=O)Nc4ccccc4[N+](=O)[O-])o3)ccc2c1 [Compound 16, 2-{[5-(1-(6-Methoxynaphthalen-2-yl)ethyl)-1,3,4-oxadiazol-2-yl]thio}-N-(2-nitrophenyl) acetamide] | 9.8 ± 0.8 µM | 8.7 ± 0.72 µM |  |  | 834.9 pg/mL and 834.9 ± 5.17 pg/mL | IC50 ([4]; THLE-2, read-out: THLE-2 IC50): 29.7 ± 2.23 µM
COc1cc2nccc(Oc3ccc(NC(=O)Nc4cc(C)on4)c(Cl)c3)c2cc1OC [Tivozanib] |  |  |  |  |  | half-life [5]: 96 h
COc1ccc2cc(C(C)c3nnc(SCC(=O)Nc4ccccc4C)o3)ccc2c1 (stereo not drawn) [Compound 7, 2-{[5-(1-(6-Methoxynaphthalen-2-yl)ethyl)-1,3,4-oxadiazol-2-yl]thio}-N-(o-tolyl)acetamide] |  |  | 13.6 ± 1.09 µM | 12.5 ± 1.09 µM |  | 
COc1ccc2cc(C(C)c3nnc(SCC(=O)Nc4ccc(C)cc4)o3)ccc2c1 (stereo not drawn) [Compound 9, 2-{[5-(1-(6-Methoxynaphthalen-2-yl)ethyl)-1,3,4-oxadiazol-2-yl]thio}-N-(p-tolyl)acetamide] | 83.5 ± 7.79 µM | 83.7 ± 6.52 µM |  |  |  | 
COc1ccc2cc(C(C)c3nnc(SCC(=O)Nc4c(Cl)cccc4Cl)o3)ccc2c1 (stereo not drawn) [Compound 15, N-(2,6-Dichlorophenyl)-2-{[5-(1-(6-methoxynaphthalen-2-yl)ethyl)-1,3,4-oxadiazol-2-yl]thio}acetamide] |  |  | 9.8 ± 0.46 µM | 8.4 ± 0.72 µM | 864.5 pg/mL and 864.5 ± 5.92 pg/mL | IC50 [4, 10]: 34.9 ± 1.86 µM
CNC(=O)c1cc(Oc2ccc(NC(=O)Nc3ccc(Cl)c(C(F)(F)F)c3)cc2)ccn1 [Sorafenib, reference compound] |  |  | 10.8 ± 1.01 µM | 10.2 ± 0.97 µM |  | IC50 [4, 10]: 27.8 ± 1.74 µM
COc1ccc2cc(C(C)c3nnc(SCC(=O)NCc4ccccc4)o3)ccc2c1 (stereo not drawn) [Compound 5, N-Benzyl-2-{[5-(1-(6-methoxynaphthalen-2-yl)ethyl)-1,3,4-oxadiazol-2-yl]thio}acetamide] |  |  | 9.7 ± 0.75 µM | 8.8 ± 0.69 µM | 610.4 pg/mL and 610.4 ± 3.46 pg/mL | IC50 [4, 10]: 33.7 ± 1.35 µM; increase in the level of caspase-3 compared to control cells (caspase-3): 5.61 fold; percentage of cells in Pre-G1 phase (HepG2 cells [6]; control 1.76%): 34.12%; percentage of cells in S phase (HepG2 cells [6]; control 27.59%): 42.05%; percentage of cells in G0/G1 phase (HepG2 cells [6]; control 51.31%): 43.91%; Apoptosis (%) (HepG2 cells [7]; control 0.51 ± 0.03): 22.86% and 22.86 ± 1.28 %; Necrosis (%) (HepG2 cells [7]; control 1.25 ± 0.08): 11.26 ± 0.77 %
COc1ccc2cc(C(C)c3nnc(SCC(=O)NC4CCCCC4)o3)ccc2c1 (stereo not drawn) [Compound 12, N-Cyclohexyl-2-{[5-(1-(6-methoxynaphthalen-2-yl)ethyl)-1,3,4-oxadiazol-2-yl]thio}acetamide] | 25.5 ± 2.02 µM | 24.6 ± 2.81 µM |  |  |  | 
COc1ccc2cc([C@H](C)c3nnc(SCC(=O)Nc4ccc([N+](=O)[O-])cc4)o3)ccc2c1 [Compound 17, 2-{[5-(1-(6-Methoxynaphthalen-2-yl)ethyl)-1,3,4-oxadiazol-2-yl]thio}-N-(4-nitrophenyl) acetamide] | 10.4 ± 0.82 µM | 9.2 ± 0.76 µM |  |  | 1067 pg/mL and 1067 ± 4.91 pg/mL | IC50 ([4]; THLE-2, read-out: THLE-2 IC50): 22.8 ± 1.22 µM
COc1ccc2cc(C(C)c3nnc(SCC(=O)Nc4ccc([N+](=O)[O-])cc4O)o3)ccc2c1 (stereo not drawn) [Compound 18, N-(2-Hydroxy-4-nitrophenyl)-2-{[5-(1-(6-methoxynaphthalen-2-yl)ethyl)-1,3,4-oxadiazol-2-yl]thio}acetamide] |  |  | 9.4 ± 0.64 µM | 8.7 ± 0.75 µM | 1004 pg/mL and 1004 ± 5.49 pg/mL | IC50 [4, 10]: 28.6 ± 2.1 µM
COc1ccc2cc(C(C)c3nnc(SCC(=O)Nc4ccc(Cl)cc4Cl)o3)ccc2c1 (stereo not drawn) [Compound 14, N-(2,4-Dichlorophenyl)-2-{[5-(1-(6-methoxynaphthalen-2-yl)ethyl)-1,3,4-oxadiazol-2-yl]thio}acetamide] | 11.2 ± 0.69 µM | 10.4 ± 0.81 µM |  |  |  | 
COc1ccc2cc(C(C)c3nnc(SCC(=O)Nc4c(C)cccc4C)o3)ccc2c1 (stereo not drawn) [Compound 10, N-(2,6-Dimethylphenyl)-2-{[5-(1-(6-methoxynaphthalen-2-yl)ethyl)-1,3,4-oxadiazol-2-yl]thio}acetamide] |  |  | 12.5 ± 0.74 µM | 11.8 ± 1.04 µM |  | 
